Measurements: patent US11542235B2, “Herbicidal 3-azaspiro[5.5] undecane-8, 10-dione compounds” (SYNGENTA PARTICIPATIONS AG, priority 2018, dated 2023)

Columns and labels:
Assay type in all cases: in vivo
[1] = tested on: Lolium perenne (LOLPE); experiment: Glasshouse herbicidal test, pre- and post-emergence, Lolium perenne; details: 250 g/h, evaluated after 13 days, five point scale; for percentage damage caused to the plant, LOLPE POST: post-emergence; for percentage damage caused to the plant, LOLPE PRE: pre-emergence
Description: (§1) Seeds of a variety of test species are sown in standard soil in pots (Lolium perenne (LOLPE), Setaria faberi (SETFA), Alopecurus myosuroides (ALOMY), Echinochloa crus-galli (ECHCG), Avena fatua (AVEFA)). After cultivation for one day (pre-emergence) or after 8 days cultivation (post-emergence) under controlled conditions in a glasshouse (at 24/16° C., day/night; 14 hours light; 65% humidity), the plants are sprayed with an aqueous spray solution derived from the formulation of the technical active ingredient in acetone/water (50:50) solution containing 0.5% Tween 20 (polyoxyethelyene sorbitan monolaurate, CAS RN 9005-64-5). Compounds are applied at […]. The test plants are then grown in a glasshouse under controlled conditions in a glasshouse (at 24/16° C., day/night; 14 hours light; 65% humidity) and watered twice daily. After 13 days for pre and post-emergence, the test is evaluated for the percentage damage caused to the plant. The biological activities are shown in the following table on a five point scale (5=80-100%; 4=60-79%; 3=40-59%; 2=20-39%; 1=0-19%).

[2] = tested on: Setaria faberi (SETFA); experiment: Glasshouse herbicidal test, pre- and post-emergence, Setaria faberi; details: 250 g/h, evaluated after 13 days, five point scale; for percentage damage caused to the plant, SETFA POST: post-emergence; for percentage damage caused to the plant, SETFA PRE: pre-emergence
Description: as §1

[3] = tested on: Alopecurus myosuroides (ALOMY); experiment: Glasshouse herbicidal test, pre- and post-emergence, Alopecurus myosuroides; details: 250 g/h, evaluated after 13 days, five point scale; for percentage damage caused to the plant, ALOMY POST: post-emergence; for percentage damage caused to the plant, ALOMY PRE: pre-emergence
Description: as §1

[4] = tested on: Echinochloa crus-galli (ECHCG); experiment: Glasshouse herbicidal test, pre- and post-emergence, Echinochloa crus-galli; details: 250 g/h, evaluated after 13 days, five point scale; for percentage damage caused to the plant, ECHCG POST: post-emergence; for percentage damage caused to the plant, ECHCG PRE: pre-emergence
Description: as §1

[5] = tested on: Avena fatua (AVEFA); experiment: Glasshouse herbicidal test, pre- and post-emergence, Avena fatua; details: 250 g/h, evaluated after 13 days, five point scale; for percentage damage caused to the plant, AVEFA POST: post-emergence; for percentage damage caused to the plant, AVEFA PRE: pre-emergence
Description: as §1

CC#Cc1cc(OC)c(C2C(=O)CC3(CCN(C(C)=O)CC3)CC2=O)c(OC)c1 [Compound A14]
5 (5=80-100%): percentage damage caused to the plant, LOLPE POST [1] | percentage damage caused to the plant, LOLPE PRE [1] | percentage damage caused to the plant, SETFA POST [2] | percentage damage caused to the plant, SETFA PRE [2] | percentage damage caused to the plant, ALOMY POST [3] | percentage damage caused to the plant, ALOMY PRE [3] | percentage damage caused to the plant, ECHCG POST [4] | percentage damage caused to the plant, ECHCG PRE [4] | percentage damage caused to the plant, AVEFA POST [5] | percentage damage caused to the plant, AVEFA PRE [5]

CC#Cc1cc(C)c(C2C(=O)CC3(CCN(C(C)=O)CC3)CC2=O)c(OC)c1 [Compound A15]
5 (5=80-100%): percentage damage caused to the plant, LOLPE POST [1] | percentage damage caused to the plant, LOLPE PRE [1] | percentage damage caused to the plant, SETFA POST [2] | percentage damage caused to the plant, SETFA PRE [2] | percentage damage caused to the plant, ALOMY POST [3] | percentage damage caused to the plant, ALOMY PRE [3] | percentage damage caused to the plant, ECHCG POST [4] | percentage damage caused to the plant, ECHCG PRE [4] | percentage damage caused to the plant, AVEFA POST [5] | percentage damage caused to the plant, AVEFA PRE [5]

CC#Cc1cc(C)c(C2=C(O)CC3(CCN(C(C)=O)CC3)CC2=O)c(C)c1 [Compound A17]
5 (5=80-100%): percentage damage caused to the plant, LOLPE POST [1] | percentage damage caused to the plant, LOLPE PRE [1] | percentage damage caused to the plant, SETFA POST [2] | percentage damage caused to the plant, SETFA PRE [2] | percentage damage caused to the plant, ALOMY POST [3] | percentage damage caused to the plant, ALOMY PRE [3] | percentage damage caused to the plant, ECHCG POST [4] | percentage damage caused to the plant, ECHCG PRE [4] | percentage damage caused to the plant, AVEFA POST [5] | percentage damage caused to the plant, AVEFA PRE [5]

CC#Cc1cc(C)c(C2=C([O-])CC3(CCN(C(C)=O)CC3)CC2=O)c(C)c1.[Na+] [Compound A18]
5 (5=80-100%): percentage damage caused to the plant, LOLPE POST [1] | percentage damage caused to the plant, LOLPE PRE [1] | percentage damage caused to the plant, SETFA POST [2] | percentage damage caused to the plant, SETFA PRE [2] | percentage damage caused to the plant, ALOMY POST [3] | percentage damage caused to the plant, ALOMY PRE [3] | percentage damage caused to the plant, ECHCG POST [4] | percentage damage caused to the plant, ECHCG PRE [4] | percentage damage caused to the plant, AVEFA POST [5] | percentage damage caused to the plant, AVEFA PRE [5]

CC#Cc1cc(C)c(C2C(=O)CC3(CCN(C(=O)C(F)F)CC3)CC2=O)c(OC)c1 [Compound A19]
5 (5=80-100%): percentage damage caused to the plant, LOLPE POST [1] | percentage damage caused to the plant, LOLPE PRE [1] | percentage damage caused to the plant, SETFA POST [2] | percentage damage caused to the plant, SETFA PRE [2] | percentage damage caused to the plant, ALOMY POST [3] | percentage damage caused to the plant, ALOMY PRE [3] | percentage damage caused to the plant, ECHCG PRE [4] | percentage damage caused to the plant, AVEFA POST [5] | percentage damage caused to the plant, AVEFA PRE [5]

CC#Cc1cc(C)c(C2C(=O)CC3(CCN(C(=O)C(C)(C)C)CC3)CC2=O)c(OC)c1 [Compound A20]
5 (5=80-100%): percentage damage caused to the plant, LOLPE POST [1] | percentage damage caused to the plant, LOLPE PRE [1] | percentage damage caused to the plant, SETFA POST [2] | percentage damage caused to the plant, SETFA PRE [2] | percentage damage caused to the plant, ALOMY POST [3] | percentage damage caused to the plant, ALOMY PRE [3] | percentage damage caused to the plant, ECHCG POST [4] | percentage damage caused to the plant, ECHCG PRE [4] | percentage damage caused to the plant, AVEFA POST [5] | percentage damage caused to the plant, AVEFA PRE [5]

CC#Cc1cc(C)c(C2C(=O)CC3(CCN(C(=O)C(C)F)CC3)CC2=O)c(C)c1 (stereo not drawn) [Compound A21]
5 (5=80-100%): percentage damage caused to the plant, LOLPE POST [1] | percentage damage caused to the plant, LOLPE PRE [1] | percentage damage caused to the plant, SETFA POST [2] | percentage damage caused to the plant, SETFA PRE [2] | percentage damage caused to the plant, ALOMY POST [3] | percentage damage caused to the plant, ALOMY PRE [3] | percentage damage caused to the plant, ECHCG POST [4] | percentage damage caused to the plant, ECHCG PRE [4] | percentage damage caused to the plant, AVEFA POST [5] | percentage damage caused to the plant, AVEFA PRE [5]
